Source: patent US3932382A, “Dideoxybutirosin derivative” (Sankyo Company Limited, priority 1973, dated 1976)
≈ marks a conversion by molar mass, not a printed value. Where two headings read alike, the source gives them in different places.

Tests used:
E. coli 665 [1] = test: Protecting Effects in Mice (Table II); type: in vivo; conditions: 2 doses subcutaneously at 0 and 4 hours post-infection, butirosin-resistant strain
From the text: (§1) Protecting Effects of 3',4'-Dideoxybutirosin A in Mice
ED50 : mg./kg./dose (2 doses subcutaneously at 0 and
*Butirosin-resistant strain

[2] = system: E. coli clinical isolates (125 strains); test: Susceptibility of Clinical Isolates (Table III); type: cell-based; conditions: of 125 strains
From the text: (§2) Susceptibility of Clinical Isolates to 3',4'-

[3] = system: P. aeruginosa clinical isolates (102 strains); test: Susceptibility of Clinical Isolates (Table III); type: cell-based; conditions: of 102 strains
From the text: as §2

[4] = system: butirosin-resistant bacteria; test: Antibacterial activity against butirosin-resistant bacteria, statement; type: cell-based
From the text: (§3) Minimum Inhibitory Concentration of 3',4'-
(§4) Mark *means butirosin-resistant bacteria
(§5) Medium : Heart-Infusion Agar

[5] = system: butirosin sensitive strains; test: Antibacterial activity against butirosin sensitive strains, statement; type: cell-based
From the text: as §3, §5

[6] = for Death incidence: mouse, in vivo
From the text: Acute Toxicities of 3',4'-Dideoxybutirosin A
Mice : ddY strain, male, 20 ± 0.2 g.

E. coli 620 = test: Minimum Inhibitory Concentration (Table I); type: cell-based; conditions: Escherichia coli, Heart-Infusion Agar, butirosin-resistant bacteria
From the text: as §3, §4, §5

E. coli 665 [7] = test: Minimum Inhibitory Concentration (Table I); type: cell-based; conditions: Escherichia coli, Heart-Infusion Agar, butirosin-resistant bacteria
From the text: as §3, §4, §5

[8] = system: Pseudomonas aeruginosa 1055; test: Minimum Inhibitory Concentration (Table I); type: cell-based; conditions: Heart-Infusion Agar, butirosin-resistant bacteria
From the text: as §3, §4, §5

E. coli 704-1 = test: Protecting Effects in Mice (Table II); type: in vivo; conditions: 2 doses subcutaneously at 0 and 4 hours post-infection
From the text: as §1
ED50 : mg./kg./dose (2 doses subcutaneously at 0 and […]

[9] = system: gram-positive and -negative bacteria; test: Antibacterial activity, general statement; type: cell-based
Staph. aureus 56 = test: Minimum Inhibitory Concentration (Table I); type: cell-based; conditions: Staphylococcus aureus, Heart-Infusion Agar
From the text: as §3, §5

[10] = system: Pseudomonas aeruginosa Scr.; test: Minimum Inhibitory Concentration (Table I); type: cell-based; conditions: Heart-Infusion Agar
From the text: as §3, §5

Escherichia coli N I H J = test: Minimum Inhibitory Concentration (Table I); type: cell-based; conditions: Heart-Infusion Agar
From the text: as §3, §5

Salmonela enteritidis = test: Minimum Inhibitory Concentration (Table I); type: cell-based; conditions: Heart-Infusion Agar
From the text: as §3, §5

Proteus vulgaris 025 = test: Minimum Inhibitory Concentration (Table I); type: cell-based; conditions: Heart-Infusion Agar
From the text: as §3, §5

[11] = system: Bacillus subtilis P C I-219; test: Minimum Inhibitory Concentration (Table I); type: cell-based; conditions: PCI219, Heart-Infusion Agar
From the text: as §3, §5

Klebsiella 806 = test: Minimum Inhibitory Concentration (Table I); type: cell-based; conditions: Heart-Infusion Agar
From the text: as §3, §5

Shigella flexneri 2a = test: Minimum Inhibitory Concentration (Table I); type: cell-based; conditions: Heart-Infusion Agar
From the text: as §3, §5

[12] = system: Staphylococcus aureus 209P; test: Minimum Inhibitory Concentration (Table I); type: cell-based; conditions: Heart-Infusion Agar
From the text: as §3, §5

Molecule: NCC[C@H](O)C(=O)N[C@@H]1C[C@H](N)[C@@H](O[C@H]2O[C@H](CN)CC[C@H]2N)[C@H](O[C@@H]2O[C@H](CO)[C@H](O)[C@H]2O)[C@H]1O [3',4'-Dideoxybutirosin A]
- ED50 (E. coli 665 [1]; Escherichia coli, 665, sc, read-out: ED50): 2.43 mg/kg
- number of strains with MIC 0.8 mcg./ml. ([2]; MIC 0.8 mcg./ml.): 0 strains
- number of strains with MIC 1.5 mcg./ml. ([2]; MIC 1.5 mcg./ml.): 0 strains
- number of strains with MIC 3.1 mcg./ml. ([2]; MIC 3.1 mcg./ml.): 0 strains
- number of strains with MIC 6.2 mcg./ml. ([2]; MIC 6.2 mcg./ml.): 6 strains
- number of strains with MIC 12.5 mcg./ml. ([2]; MIC 12.5 mcg./ml.): 100 strains
- number of strains with MIC 25 mcg./ml. ([2]; MIC 25 mcg./ml.): 15 strains
- number of strains with MIC 50 mcg./ml. ([2]; MIC 50 mcg./ml.): 2 strains
- number of strains with MIC 100 mcg./ml. ([2]; MIC 100 mcg./ml.): 2 strains
- number of strains with MIC 200 mcg./ml. ([2]; MIC 200 mcg./ml.): 0 strains
- number of strains with MIC >200 mcg./ml. ([2]; MIC >200 mcg./ml.): 0 strains
- number of strains with MIC 0.8 mcg./ml. ([3]; MIC 0.8 mcg./ml.): 1 strains
- number of strains with MIC 1.5 mcg./ml. ([3]; MIC 1.5 mcg./ml.): 3 strains
- number of strains with MIC 3.1 mcg./ml. ([3]; MIC 3.1 mcg./ml.): 5 strains
- number of strains with MIC 6.2 mcg./ml. ([3]; MIC 6.2 mcg./ml.): 20 strains
- number of strains with MIC 12.5 mcg./ml. ([3]; MIC 12.5 mcg./ml.): 41 strains
- number of strains with MIC 25 mcg./ml. ([3]; MIC 25 mcg./ml.): 21 strains
- number of strains with MIC 50 mcg./ml. ([3]; MIC 50 mcg./ml.): 3 strains
- number of strains with MIC 100 mcg./ml. ([3]; MIC 100 mcg./ml.): 5 strains
- number of strains with MIC 200 mcg./ml. ([3]; MIC 200 mcg./ml.): 2 strains
- number of strains with MIC >200 mcg./ml. ([3]; MIC >200 mcg./ml.): 1 strains
- activity against butirosin-resistant bacteria [4]: an activity against butirosin -resistant bacteria
- activity against butirosin-resistant bacteria ([4]; listed as 3', 4'-dideoxybutirosin A (I)): outstanding activities
- activities against butirosin sensitive strains [5]: outstanding activities
- toxicity ([6]; as compared with the prior similar aminoglycoside antibiotics): considerably low toxicity
- Death incidence ([6]; iv, 250 mg/kg): 0/3
- Death incidence ([6]; iv, 500 mg/kg): 1/2
- Death incidence ([6]; sc, 2000 mg/kg): 0/3
- MIC (E. coli 620): 3.1 µg/mL (≈ 5.92 µM)
- MIC (E. coli 665 [7]): 3.1 µg/mL (≈ 5.92 µM)
- MIC [8]: 6.2 µg/mL (≈ 11.8 µM)
- ED50 (E. coli 704-1; Escherichia coli, 7041, sc, read-out: ED50): 2.3 mg/kg
- antibacterial activities [9]: broad antibacterial activities
- MIC (Staph. aureus 56): 0.4 µg/mL (≈ 0.764 µM)
- MIC [10]: 3.1 µg/mL (≈ 5.92 µM)
- MIC (Escherichia coli N I H J): 0.4 µg/mL (≈ 0.764 µM)
- MIC (Salmonela enteritidis): 1.5 µg/mL (≈ 2.86 µM)
- MIC (Proteus vulgaris 025): 0.8 µg/mL (≈ 1.53 µM)
- MIC [11]: 0.1 µg/mL (≈ 0.191 µM)
- MIC (Klebsiella 806): 0.8 µg/mL (≈ 1.53 µM)
- MIC (Shigella flexneri 2a): 3.1 µg/mL (≈ 5.92 µM)
- MIC [12]: 0.1 µg/mL (≈ 0.191 µM)

Molecule: Butirosin [reference compound]
- ED50 (E. coli 665 [1]): 146.3 mg./kg./dose
- ED50 (E. coli 704-1): 2.47 mg./kg./dose
